Each structure is given as a SMILES string.

The target in one experiment is T1, CDK1/cyclinB1 (Homo sapiens, UniProt P06493).
T1 construct: made in house; host or cells: High Five insect cells (Trichoplusia ni), baculovirus coinfection
T1 sequence (P06493 whole entry): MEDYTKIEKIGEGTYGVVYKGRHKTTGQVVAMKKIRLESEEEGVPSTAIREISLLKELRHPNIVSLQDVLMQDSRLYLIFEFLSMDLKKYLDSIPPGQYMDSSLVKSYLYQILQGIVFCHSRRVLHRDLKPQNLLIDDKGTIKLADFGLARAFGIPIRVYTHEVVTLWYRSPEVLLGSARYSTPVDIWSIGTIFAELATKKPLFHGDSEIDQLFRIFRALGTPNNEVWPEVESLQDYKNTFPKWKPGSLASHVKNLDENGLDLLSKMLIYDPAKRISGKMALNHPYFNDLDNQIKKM
T1 sequence (P14635 whole entry partner): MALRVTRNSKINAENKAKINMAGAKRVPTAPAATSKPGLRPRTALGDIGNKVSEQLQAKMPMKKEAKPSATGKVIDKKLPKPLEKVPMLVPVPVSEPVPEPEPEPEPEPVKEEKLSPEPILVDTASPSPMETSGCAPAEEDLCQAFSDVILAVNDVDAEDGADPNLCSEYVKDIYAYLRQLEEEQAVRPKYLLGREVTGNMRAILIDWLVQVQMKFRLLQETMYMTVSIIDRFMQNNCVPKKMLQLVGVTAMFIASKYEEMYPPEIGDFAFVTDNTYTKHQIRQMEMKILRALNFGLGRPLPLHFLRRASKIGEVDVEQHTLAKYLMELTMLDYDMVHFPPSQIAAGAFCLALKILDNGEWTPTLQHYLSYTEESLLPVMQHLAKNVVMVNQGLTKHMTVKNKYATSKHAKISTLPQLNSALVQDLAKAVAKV
Put plainly: Cyclin B1-CDK1 kinase inhibition test. It is filed as biochemical.
Conditions: not given
On the procedure:
CDK4) were cloned by standard methods using RT-PCR, and cloned into a transfer vector (cyclin in pAcG2T made by Pharmingen, CDKs in p2Bac made by Invitrogen) for the baculovirus system. […] After thawing the cells were resuspended in lysing buffer (50 mM HEPES pH 7.5, 10 mM MgCl2, 1 mM DTT, 5 μg/ml leupeptin, 5 μg/ml aprotinin, 100 μM NaF, 100 μM PMSF, 10 mM β-glycerolphosphate, 100 μM Na3VO4, 30 mM nitrophenylphosphate, 17.5 ml of lysing buffer per 10^8 cells) and incubated on ice for 30 min. […] Cyclin D1-CDK4 was purified by means of a GST-tag on cyclin D1 and then using glutathione beads (total protein about 0.2 mg/ml). All the kinase tests were carried out in 96-well microtitre plates (Greiner PS) in a final volume of 60 μl. […] As a negative control the kinase reaction was carried out in the absence of the substrate histone H1. As a positive control the kinase reaction was carried out in the absence of a test substance. As an internal control 30 μM and 300 μM (final concentration) of the kinase inhibitor olomoucin (Alexis) were used. […] The kinase reaction is started by the addition of 10 μl of ATP mix (0.045 mM ATP, 0.5 μCi ^33P-ATP in kinase buffer) and incubated for 30 min at 30° C. and 600 rpm in a shaking incubator. After incubation the plates were placed on ice and the proteins were precipitated by the addition of 125 μl of ice-cold 5% trichloroacetic acid. After 15 min on ice the precipitates were transferred onto Packard Unifilter 96 GF/B plates with the Packard Harvester System, and collected by vacuum filtration. The precipitates were washed 4 times with dist. H2O at ambient temperature. The filter plates were then dried at 60° C. and 50 μl of scintillation liquid were added to each well (Ultima Gold, Packard). The plate was sealed up with Sealing Tape and after 1 h measured in a scintillation measuring apparatus (Micro Beta made by Wallac).
Take `CN1CCC(CNc2nc(Nc3ccc(Cl)c(Cl)c3)ncc2C(F)(F)F)CC1` [Example 1(030)]: the IC50 is less than 100 nM.

Still in this experiment, the particulars now being: CDK1 tests (Example 13); recombinant cyclin B1/CDK1, substrate histone H1; read-out: CDK1/cyclinB1 IC50 value.
Consider `FC(F)(F)c1cnc(Nc2cccc(Cl)c2)nc1N1CCc2[nH]cnc2C1` [Example 1(005), 2-(3-chlorophenylamino)-4-(1,4,6,7-tetrahydro-imidazo[4,5-c]pyridin-5-yl)-5-trifluoromethyl-pyrimidine], for which the IC50 is less than 100 nM. Same read-out and setting: as for `FC(F)(F)c1cnc(Nc2ccc(Cl)c(Cl)c2)nc1NCCN1CCOCC1` [Example 1(104), 2-(3,4-dichloro-phenylamino)-4-(2-morpholino-1-ethylamino)-5-trifluoromethyl-pyrimidine], the figure is less than 100 nM; as for `CC(=O)NCCNc1nc(Nc2ccc3[nH]nnc3c2)ncc1C(F)(F)F` [Example 2(042), N-{2-[2-(1H-Benzotriazol-5-ylamino)-5-trifluoromethyl-pyrimidin-4-ylamino]-ethyl}-acetamide], less than 100 nM. The same measure, in the same setting: as for `CC(=O)NCCNc1nc(Nc2ccc(S(=O)(=O)N3CCN(C)CC3)cc2)ncc1C(F)(F)F` [Example 2(058), N-(2-{2-[4-(4-Methyl-piperazin-1-sulphonyl)-phenylamino]-5-trifluoromethyl-pyrimidin-4-ylamino}-ethyl)-acetamide], the figure is less than 100 nM.

`O=[N+]([O-])c1cnc(Nc2cccc(Br)c2)nc1N1CCc2[nH]cnc2C1` [Example 1(119), 2-(3-bromophenylamino)-4-(1,4,6,7-tetrahydro-imidazo[4,5-c]pyridin-5-yl)-5-nitro-pyrimidine]: the IC50 is less than 100 nM.

As to `NCC1CCC(CNc2nc(Nc3cccc(Br)c3)ncc2C(F)(F)F)CC1` (stereo not drawn) [Example 1(088), 2-(3-bromo-phenylamino)-4-(4-aminomethyl-cyclohexylmethylamino)-5-trifluoromethyl-pyrimidine], the IC50 is less than 100 nM. Turning to `FC(F)(F)c1cnc(Nc2ccc3ccccc3c2)nc1N1CCc2[nH]cnc2C1` [Example 1(152), 2-(2-naphthylamino)-4-(1,4,6,7-tetrahydro-imidazo[4,5-c]pyridin-5-yl)-5-trifluoromethyl-pyrimidine], the IC50 was less than 100 nM. In the case of `CC(=O)NCCNc1nc(Nc2cccc([N+](=O)[O-])c2)ncc1C(F)(F)F` [Example 2(010), 2-(3-Nitro-phenylamino)-4-(2-acetylamino-ethylamino)-5-trifluoromethyl-pyrimidine], the IC50 was less than 100 nM. As to `NCC1CCN(c2nc(Nc3cccc(Br)c3)ncc2[N+](=O)[O-])CC1` [Example 1(042), 2-(3-bromo-phenylamino)-4-(4-aminomethyl-piperidin-1-yl)-5-nitro-pyrimidine], the IC50 is less than 100 nM.

Turning to `O=C1CCCN1CCCNc1nc(Nc2ccccc2)ncc1C(F)(F)F` [Example 1(031), 2-phenylamino-4-(3-(2-oxo-pyrrolidin-1-yl)-propyl-1-amino)-5-trifluoromethyl-pyrimidine], the IC50 was less than 100 nM.

On to `CC(=O)NCCNc1nc(Nc2ccc(S(=O)(=O)N3CC(C)NC(C)C3)cc2)ncc1C(F)(F)F` (stereo not drawn) [Example 2(061), N-(2-{2-[4-(3,5-Dimethyl-piperazin-1-sulphonyl)-phenylamino]-5-trifluoromethyl-pyrimidin-4-ylamino}-ethyl)-acetamide], for which the IC50 is less than 100 nM.

On to `CC(=O)NCCCNc1nc(Nc2ccc(C(N)=O)cc2)ncc1C(F)(F)F` [Example 7(027), 4-[4-(3-acetylamino-propylamino)-5-trifluoromethyl-pyrimidin-2-ylamino]-benzamide], for which the IC50 was less than 100 nM.

`NC(=O)CCNc1nc(Nc2ccc(Cl)c(Cl)c2)ncc1C(F)(F)F` [Example 1(025), 2-(3,4-dichloro-phenylamino)-4-(2-aminocarbonyl-1-ethylamino)-5-trifluoromethyl-pyrimidine]: the IC50 was less than 100 nM. The same measure, in the same setting: as for `CN(C)CC(=O)NCCCNc1nc(Nc2ccc(C(N)=O)cc2)ncc1C(F)(F)F` [Example 7(029), 4-(4-[3-(2-dimethylamino-acetylamino)-propylamino]-5-trifluoromethyl-pyrimidin-2-ylamino)-benzamide], the figure is less than 100 nM.

The record behind these values is US8420630B2 (Boehringer Ingelheim Pharma GmbH & Co. KG, priority 2001, dated 2013).
